US20060069132A1, “Azolecarboxamide herbicides” (priority 2004, published 2006)

Experiments:
[1] = system: barnyardgrass; assay: Test B pre-/postemergence herbicide test; type: in vivo, Echinochloa crus-galli; details: for Barnyardgrass plant response rating: Postemergence, scale 0 (no effect) to 100 (complete control)
Outline: (§1)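 Response was scored visually 13 to 15 days after treatment against untreated greenhouse controls, 0 meaning no effect and 100 complete control. Formulations (solvent mixture plus surfactant) went onto soil after planting, onto foliage of 1- to 4-leaf plants, and onto 2-leaf plants in a flooded paddy set including rice and barnyardgrass.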

[2] = system: Surinam grass; assay: Test B pre-/postemergence herbicide test; type: in vivo, Urochloa decumbens
Outline: (§2)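 Evaluation is visual, comparing treated with control plants on a scale where 0 means no effect and 100 means full control. Treatments were preemergence, or postemergence on seedlings 2–18 cm tall, and held 13–15 days in the greenhouse.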

[3] = system: cocklebur; assay: Test B pre-/postemergence herbicide test; type: in vivo, Xanthium strumarium
Outline: as §1

[4] = system: corn; assay: Test B pre-/postemergence herbicide test; type: in vivo, Zea mays
Outline: as §2

[5] = system: large crabgrass; assay: Test B pre-/postemergence herbicide test; type: in vivo, Digitaria sanguinalis
Outline: as §2

[6] = system: giant foxtail; assay: Test B pre-/postemergence herbicide test; type: in vivo, Setaria faberi
Outline: as §2

[7] = system: lambsquarters; assay: Test B pre-/postemergence herbicide test; type: in vivo, Chenopodium album
Outline: as §2

[8] = system: morningglory; assay: Test B pre-/postemergence herbicide test; type: in vivo, Ipomoea coccinea
Outline: as §1

[9] = system: pigweed; assay: Test B pre-/postemergence herbicide test; type: in vivo, Amaranthus retroflexus
Outline: as §2

[10] = system: velvetleaf; assay: Test B pre-/postemergence herbicide test; type: in vivo, Abutilon theophrasti
Outline: as §2

[11] = system: blackgrass; assay: Test B postemergence herbicide test; type: in vivo, Alopecurus myosuroides
Outline: (§3)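 Visual control ratings, 0–100 versus untreated controls, taken after 13 to 15 days in the greenhouse. Blackgrass received a postemergence spray at the 1- to 4-leaf stage (2–18 cm); ducksalad, umbrella sedge and barnyardgrass were flooded-paddy treated at 2 leaves.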

[12] = system: wheat; assay: Test B postemergence herbicide test; type: in vivo, Triticum aestivum; set-up: key to Wheat plant response rating: 0 = no effect, 100 = complete control
Outline: (§4)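 Visual ratings, 0 (no effect) to 100 (complete control), made versus controls after 13–15 d greenhouse. Paddy plants treated at 2-leaf stage; postemergence plants at 1- to 4-leaf stage, 2–18 cm tall.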

[13] = system: wild oat; assay: Test B postemergence herbicide test; type: in vivo, Avena fatua
Outline: as §4

[14] = system: rice; assay: Test B flooded paddy test; type: in vivo, Oryza sativa; details: 1000 g ai/ha, scale 0 to 100 (0 no effect, 100 complete control)
Outline: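 Each value is a visual 0–100 response rating taken against controls 13 to 15 days after treatment in the greenhouse. Plants received formulated chemical postemergence at the 1- to 4-leaf stage or, in flooded paddy, at the 2-leaf stage.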

[15] = system: small flower umbrella sedge; assay: Test B flooded paddy test; type: in vivo, Cyperus difformis; details: 1000 g ai/ha, scale 0 to 100 (0 no effect, 100 complete control)
Outline: as §3

[16] = system: ducksalad; assay: Test B flooded paddy test; type: in vivo, Heteranthera limosa; details: 1000 g ai/ha, scale 0 to 100 (0 no effect, 100 complete control)
Outline: as §3

[17] = system: barnyardgrass; assay: Test B flooded paddy test; type: in vivo, Echinochloa crus-galli; details: 1000 g ai/ha, scale 0 to 100 (0 no effect, 100 complete control)
Outline: as §3

[18] = system: winter barley; assay: Test C postemergence herbicide test; type: in vivo, Hordeum vulgare
Outline: (§5)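 Injury scored visually against controls on a 0 (no effect) to 100 (complete control) scale, 12 to 14 days after treatment in greenhouse. Flooded paddy plants treated at 2-leaf stage; postemergence plants at 1- to 4-leaf stage, 2 to 18 cm tall.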

[19] = system: blackgrass; assay: Test C postemergence herbicide test; type: in vivo, Alopecurus myosuroides
Outline: as §5

[20] = system: canarygrass; assay: Test C postemergence herbicide test; type: in vivo, Phalaris minor
Outline: as §5

[21] = system: downy bromegrass; assay: Test C postemergence herbicide test; type: in vivo, Bromus tectorum
Outline: as §5

[22] = system: green foxtail; assay: Test C postemergence herbicide test; type: in vivo, Setaria viridis
Outline: as §5

[23] = system: Italian ryegrass; assay: Test C postemergence herbicide test; type: in vivo, Lolium multiflorum
Outline: as §5

[24] = system: wheat; assay: Test C postemergence herbicide test; type: in vivo, Triticum aestivum
Outline: as §5

[25] = system: wild oat; assay: Test C postemergence herbicide test; type: in vivo, Avenafatua
Outline: as §5

[26] = system: windgrass; assay: Test C postemergence herbicide test; type: in vivo, Apera spica-venti
Outline: as §5

[27] = 125 g ai/ha, 0 is no effect, 100 is complete control, preemergence
[28] = Postemergence, 500 g ai/ha, scale 0 (no effect) to 100 (complete control)
[29] = postemergence, 125 g ai/ha, scale 0 to 100
[30] = Postemergence, 500 g ai/ha, scale 0 to 100
[31] = Postemergence, 250 g ai/ha, scale 0 to 100, 0 no effect, 100 complete control
[32] = postemergence, 62 g ai/ha, scale 0 to 100
[33] = Postemergence, 500 g ai/ha, scale 0 to 100, 0 no effect, 100 complete control

Which “Plant response rating (0 to 100 scale), Barnyardgrass” value [1, 27] does the source give for `C=CCN(CC=C)C(=O)c1cccc(NC(=O)c2nn(C(C)(C)C)nc2CC)c1` [Compound 415] here?
Its value is 10.

What about the “Barnyardgrass plant response rating” value ([1]; 125 g ai/ha) of the same compound?
Its value is 20.

And the “Barnyardgrass plant response rating” value ([1]; 500 g ai/ha)?
Its value is 20.

What about the “Plant response rating (0 to 100 scale), Surinam Grass” value [2, 27] of the same compound?
Its value is 20.

And the “Surinam Grass plant response rating” value [2, 28]?
The value was 30.

And the “Surinam Grass plant response rating” value [2, 29]?
Its value is 10.

What about the “Plant response rating (0 to 100 scale), Cocklebur” value [3, 27] of the same compound?
Its value is 0.

What about the “Cocklebur plant response rating” value [3, 28] of the same compound?
Its value is 50.

What about the “Cocklebur plant response rating” value [3, 29] of the same compound?
Its value is 30.

And the “Plant response rating (0 to 100 scale), Corn” value [4, 27]?
Its value is 0.

And the “Corn plant response rating” value [4, 28]?
The value was 20.

What about the “Corn plant response rating” value [4, 29] of the same compound?
Its value is 20.

And the “Plant response rating (0 to 100 scale), Crabgrass, Large” value [5, 27]?
Its value is 70.

And the “Crabgrass, Large plant response rating” value [5, 28]?
The value was 50.

And the “Crabgrass, Large plant response rating” value [5, 29]?
The value was 20.

What about the “Plant response rating (0 to 100 scale), Foxtail, Giant” value [6, 27] of the same compound?
The value was 20.

What about the “Foxtail, Giant plant response rating” value [6, 28] of the same compound?
The value was 40.

And the “Foxtail, Giant plant response rating” value [6, 29]?
Its value is 20.

What about the “Plant response rating (0 to 100 scale), Lambsquarters” value [7, 27] of the same compound?
The value was 50.

What about the “Lambsquarters plant response rating” value [7, 28] of the same compound?
Its value is 80.

And the “Lambsquarters plant response rating” value [7, 29]?
The value was 70.

What about the “Plant response rating (0 to 100 scale), Morningglory” value [8, 27] of the same compound?
Its value is 0.

What about the “Morningglory plant response rating” value [8, 28] of the same compound?
The value was 40.

And the “Morningglory plant response rating” value [8, 29]?
The value was 10.

What about the “Plant response rating (0 to 100 scale), Pigweed” value [9, 27] of the same compound?
Its value is 60.

And the “Pigweed plant response rating” value [9, 28]?
Its value is 90.

And the “Pigweed plant response rating” value [9, 29]?
The value was 70.

And the “Plant response rating (0 to 100 scale), Velvetleaf” value [10, 27]?
The value was 20.

And the “Velvetleaf plant response rating” value [10, 28]?
Its value is 50.

And the “Velvetleaf plant response rating” value [10, 29]?
Its value is 30.

And the “Blackgrass plant response rating” value [11, 28]?
The value was 40.

And the “Blackgrass plant response rating” value [11, 29]?
The value was 30.

What about the “Wheat plant response rating” value ([12]; 500 g ai/ha, scale 0 to 100, 0 no effect, 100 complete control, preemergence) of the same compound?
Its value is 30.

What about the “Wheat plant response rating” value [12, 28] of the same compound?
Its value is 30.

And the “Wheat plant response rating” value [12, 29]?
Its value is 20.

What about the “Oat, Wild plant response rating” value [13, 28] of the same compound?
The value was 40.

And the “Oat, Wild plant response rating” value [13, 29]?
The value was 30.

And the “Rice plant response rating” value [14]?
The value was 50.

And the “Sedge, Umbrella plant response rating” value [15]?
Its value is 80.

What about the “Ducksalad plant response rating” value [16] of the same compound?
The value was 80.

And the “Barnyardgrass plant response rating” value [17]?
The value was 60.

And the “Barley, Winter plant response rating” value [18, 30]?
The value was 45.

What about the “Plant response rating, Barley, Winter” value ([18]; Postemergence, 125 g ai/ha, scale 0 to 100, 0 no effect, 100 complete control) of the same compound?
Its value is 35.

And the “Plant response rating, Barley, Winter” value [18, 31]?
Its value is 35.

And the “Plant response rating, Barley, Winter” value ([18]; postemergence, 62 g ai/ha, scale 0 to 100 (0 no effect, 100 complete control))?
The value was 35.

What about the “Blackgrass plant response rating” value [19, 30] of the same compound?
Its value is 65.

What about the “Plant response rating, Blackgrass” value [19, 31] of the same compound?
The value was 60.

And the “Plant response rating, Blackgrass” value [19, 29]?
Its value is 60.

And the “Plant response rating, Blackgrass” value [19, 32]?
Its value is 50.

And the “Plant response rating, Canarygrass” value [20, 31]?
The value was 55.

And the “Plant response rating, Canarygrass” value [20, 33]?
The value was 65.

What about the “Plant response rating, Canarygrass” value [20, 29] of the same compound?
The value was 50.

What about the “Plant response rating, Canarygrass” value [20, 32] of the same compound?
The value was 45.

What about the “Plant response rating, Bromegrass, Downy” value [21, 31] of the same compound?
The value was 60.

What about the “Plant response rating, Bromegrass, Downy” value [21, 33] of the same compound?
Its value is 65.

What about the “Plant response rating, Bromegrass, Downy” value [21, 29] of the same compound?
Its value is 60.

And the “Plant response rating, Bromegrass, Downy” value [21, 32]?
Its value is 60.

And the “Plant response rating, Foxtail, Green” value [22, 31]?
Its value is 50.

And the “Plant response rating, Foxtail, Green” value [22, 33]?
The value was 60.

And the “Plant response rating, Foxtail, Green” value [22, 29]?
Its value is 50.

And the “Plant response rating, Foxtail, Green” value [22, 32]?
Its value is 45.

What about the “Plant response rating, Ryegrass, Italian” value [23, 33] of the same compound?
Its value is 45.

And the “Plant response rating, Ryegrass, Italian” value [23, 29]?
Its value is 40.

And the “Plant response rating, Ryegrass, Italian” value [23, 32]?
The value was 30.

What about the “Plant response rating, Wheat” value [24, 33] of the same compound?
The value was 30.

And the “Plant response rating, Wheat” value [24, 29]?
The value was 25.

And the “Plant response rating, Wheat” value [24, 32]?
The value was 20.

And the “Plant response rating, Oat, Wild” value [25, 33]?
Its value is 55.

What about the “Plant response rating, Oat, Wild” value [25, 29] of the same compound?
The value was 45.

What about the “Plant response rating, Oat, Wild” value [25, 32] of the same compound?
The value was 40.

And the “Plant response rating, Windgrass” value [26, 33]?
Its value is 65.

What about the “Plant response rating, Windgrass” value [26, 29] of the same compound?
The value was 50.

And the “Plant response rating, Windgrass” value [26, 32]?
Its value is 50.
